From patent publication US20210259949A1, “USE OF A BIXA ORELLANA EXTRACT” (BASF Beauty Care Solutions France SAS, priority 2018, published 2021)

Tested on: IGFBP3 protein
Assay: Quantification of IGFBP3 protein by ELISA in supernatant of normal human keratinocytes
Type: cell-based
Details: IGF-1 at 100 ng/ml, 24 h, related to non-treated cells (100), NS
Method: Normal human keratinocytes were cultured up to 70% confluence, then treated for 24 h with IGF-1 at 100 ng/ml or the Bixa orellana extract obtained according to Example 1a) before mixing with maltodextrin and spray-drying at 0.1% or 0.05% (w/w in the total medium) for 24 h. The cells are lysed for assaying the DNA, and the supernatant is used for the quantification of the IGFBP3 protein by ELISA according to the protocol of the supplier of the ELISA kit (LSBio Human IGFBP3 ELISA Kit ref LS-F24538 lot 103180).
The results are related to non-treated cells. A statistical t-test test is carried out, and the means are compared.

IGF-1: growth factor insulin-like growth factor type 1 (IGF1), used at 100 ng/ml
IGFBP3 protein, Mean: 128.195
